Results published in publication PMC11225352, “A multicenter, randomized, double-blind, placebo-controlled ascending dose study to evaluate the safety, tolerability, pharmacokinetics (PK) and pharmacodynamic (PD) effects of Posiphen in subjects with early Alzheimer’s Disease” (Alzheimer's Research & Therapy, 2024).

What was measured:
[1] = Plasma pharmacokinetics of Posiphen and its N1 and N8 metabolites (LC-MS, non-compartmental); assay type: in vivo, human; settings: for Tmax: median (min-max); for AUC(0-t) / Cmax: 60 mg; for AUC(0-t): read-out: AUC0 − 24; for Cmax: read-out: Cmax; for mean levels averaged over 24 h of CSF sampling: after 21–23 days, early AD
Excerpt: (§1) For the confinement visit, subjects arrived in the early morning after an overnight fast. Physical and neurological examination, vital signs, and assessment of compliance were completed and blood was drawn for safety laboratory tests. An intravenous line and a second line for repeated blood draw were placed. To sample CSF, the intrathecal space was accessed using a Perifix 18G Touhy Epidural Needle (90 mm), and a Polyamide Epidural Catheter (20G Closed Tip) was inserted and fixed in place by an Anesthesiologist. Participants received the last day’s dosing of study drug or placebo. Initial blood and CSF samples were drawn, intravenous infusion of ^13C6-leucine was started and continued for 9 h, during which time subjects received a low leucine diet. Blood and CSF were sampled every 2 h for 36 h. After 36 h, intravenous lines and the CSF catheter were removed, vital signs were measured, physical exam performed, and blood and CSF were sent for routine laboratory studies. […] If postural headache was present, a blood patch was performed. Once stable, participants underwent a brief exam and vital sign check and were discharged. They received a phone call 24 h after discharge to check on their wellbeing.
(§2) For biochemical analysis to derive data for SILK, ^13C6-leucine was analyzed in plasma and CSF by mass spectrometry, and Aβ peptides in CSF were analyzed by immunoprecipitation-mass spectrometry (IP-MS) as previously described, by C2N Diagnostics (St Louis, MO). CSF levels of sAPPα, sAPPβ, Aβ38, 40 and 42 were analyzed by the ADCS Biomarker Core using Mesoscale Discovery (MSD) electrochemiluminescent assays (Mesoscale Discovery, Rockville, MD). Levels of Posiphen and its N1 and N8 metabolites in plasma and CSF were measured by Charles River Laboratories (Montreal, CA) by high-performance liquid chromatographic mass spectrometry, with use of deuterated Posiphen (procured by Charles River Laboratories) as an internal standard.
(§3) A prespecified Statistical Analysis Plan (SAP) was prepared and finalized before the database lock occurred. For safety and tolerability, frequencies of adverse events, serious adverse events and laboratory abnormalities between the participants across the three groups are compared, using Pearson’s χ [2] or ANOVA, as appropriate. Plasma concentration-time data are analyzed by non-compartmental methods using WinNonlin version 6.2.1 or greater. Calculations are based on the actual sampling times recorded during the study. For PK analysis, only the subjects receiving Posiphen are included.
(§4) Noncompartmental pharmacokinetic parameters were estimated using Phoenix WinNonlin v8.3 (Certara, Princeton, NJ). Levels and parameters (Cmax, AUC) of posiphen, n-1 and n-8 metabolites were highly correlated in plasma and CSF. For the BID and TID doses the expected post dose plasma peaks appeared attenuated.

[2] = CSF pharmacokinetics of Posiphen and its N1 and N8 metabolites (lumbar catheter sampling, LC-MS); assay type: in vivo, human; settings: for mean levels averaged over 24 h of CSF sampling: after 21–23 days, early AD; for Tmax: median (min-max); for AUC(0-t) / Cmax: 60 mg; for AUC(0-t): read-out: AUC0 − 24; for Cmax: read-out: Cmax
Excerpt: as §1, §2, §3, §4

Aβ40 = assay: SILK analysis of CSF Aβ40 (fractional synthesis rate, IP-MS); assay type: in vivo, human
Experimental: From June 5, 2017 to December 31, 2021, we conducted the DISCOVER randomized clinical trial at five participating sites, coordinated by the Alzheimer’s Disease Cooperative Study (ADCS) at UCSD, with funding from the National Institute on Aging and investigational product provided by Annovis, Inc. This study was approved by each participating site’s IRB and was registered on https://www.clinicaltrials.gov/ as NCT02925650. The trial was conducted according to the guidelines of good clinical practice (GCP) and was monitored by the ADCS. A Data Safety Monitoring Board (DSMB) reviewed data for each cohort and for the study overall. […]
For the confinement visit, subjects arrived in the early morning after an overnight fast. […] After 36 h, intravenous lines and the CSF catheter were removed, vital signs were measured, physical exam performed, and blood and CSF were sent for routine laboratory studies. […]
For biochemical analysis to derive data for SILK, ^13C6-leucine was analyzed in plasma and CSF by mass spectrometry, and Aβ peptides in CSF were analyzed by immunoprecipitation-mass spectrometry (IP-MS) as previously described, by C2N Diagnostics (St Louis, MO). CSF levels of sAPPα, sAPPβ, Aβ38, 40 and 42 were analyzed by the ADCS Biomarker Core using Mesoscale Discovery (MSD) electrochemiluminescent assays (Mesoscale Discovery, Rockville, MD). […]

Aβ42 = assay: CSF Aβ42 level, screening to day 21 (MSD immunoassay); assay type: in vivo, human; settings: ANOVA with age and sex as covariates; p = 0.33
Experimental: as §2
(§5) Changes in CSF biomarkers from the screening to confinement (sample at time of placement of catheter) were compared in the treatment and placebo groups by ANOVA, with models that included age, sex and baseline MMSE, and further analysis stratified by treatment dose. A similar approach was taken to analyze changes in MMSE, ADAS-cog and NPI. Data were analyzed using R (version 4.2.2).

Total tau = assay: CSF total tau level, screening to day 21; assay type: in vivo, human
Experimental: as §5

[3] = set-up: method as in PMID 22791904; settings: cited from earlier work
APP = system: APP; set-up: method as in PMID 36641607; settings: mild AD (n = 14), 80 mg once per day, up to 27 days; not significant; cited from earlier work
[4] = human, plasma, oral, plasma, 60 mg BID (n = 5), geometric mean (% geometric CV)
[5] = human, plasma, oral, plasma, 60 mg TID (n = 1)
[6] = human, plasma, oral, plasma, 60 mg daily (n = 4), geometric mean (% geometric CV)
[7] = plasma, 60 mg daily (n = 4), geometric mean (% geometric CV)
[8] = human, oral, 60 mg BID (n = 5), geometric mean (% geometric CV)
[9] = human, oral, 60 mg daily (n = 4; N1: only one participant measurable), geometric mean (% geometric CV)

## CN1CC[C@]2(C)c3cc(OC(=O)Nc4ccccc4)ccc3N(C)[C@H]12 [Posiphen]
[1]; 60 mg once, twice, three times daily
  plasma exposure with more frequent dosing: did not increase proportionally
[1]; human, oral, plasma, 60 mg daily (n = 4), geometric mean (% geometric CV)
  half-life: 3.55 h
[1]; human, oral, plasma, 60 mg daily (n = 4), read-out: Tmax
  Tmax: 2 h
[1]; [4]
  AUC(0-t): 196 ng·h/mL
  Cmax: 30.4 ng/mL
[1]; [5]
  AUC(0-t): 288 ng·h/mL
  Cmax: 51.8 ng/mL
[1]; [6]
  AUC(0-t): 212 ng·h/mL
  Cmax: 52.7 ng/mL
[1]; plasma, 60 mg BID (n = 5)
  mean levels averaged over 24 h of CSF sampling: 9.51 ± 5.77 ng/mL
  Tmax: 2 (2–12) hr
[1]; plasma, 60 mg TID (n = 1)
  mean levels averaged over 24 h of CSF sampling: 12.01 ng/mL
[1]; [7]
  Cl/F: 274.04 (17.50) L/hr
  V/F: 1403.1 (59.23) L
[1]; plasma, 60 mg once daily (n = 5)
  mean levels averaged over 24 h of CSF sampling: 7.16 ± 4.25 ng/mL
[2]; 60 mg (n = 5)
  mean levels averaged over 24 h of CSF sampling: 0.46 ± 0.30 ng/mL
[2]; 60 mg BID (n = 5)
  mean levels averaged over 24 h of CSF sampling: 0.73 ± 0.53 ng/mL
  Tmax: 2 (2–20) hr
[2]; 60 mg TID (n = 1)
  mean levels averaged over 24 h of CSF sampling: 0.71 ng/mL
[2]; human, oral, 60 mg daily (n = 4; N1: only one participant measurable), read-out: Tmax
  Tmax: 2 h
[2]; [8]
  AUC(0-t): 17.9 ng·h/mL
  Cmax: 2.21 ng/mL
[2]; human, oral, 60 mg TID (n = 1)
  AUC(0-t): 25 ng·h/mL
  Cmax: 2.44 ng/mL
[2]; [9]
  AUC(0-t): 12.3 ng·h/mL
  Cmax: 2.85 ng/mL
Aβ40; after 21 days, FSR from hours 6–16 and automated method, no dose-dependent effect
  effect on FSR for CSF Aβ40 vs. placebo: no significant effect
Aβ40; single 180 mg per day subject, previous study maximum 24.7 h
  peak in labeling (SILK curve): about 28 h
Aβ42
  CSF Aβ42, Treatment difference (Posiphen – placebo): -0.104 (0.102) p = 0.33 pg/mL
Total tau; ANOVA with age and sex as covariates, p = 0.39
  CSF Total tau, Treatment difference (Posiphen – placebo): 133 (149) p = 0.39 pg/mL
Total tau; Posiphen arm, all doses (n = 10), screening 751 ± 404 (n = 11)
  CSF Total tau, Day 21: 849 ± 369 (n = 10) pg/mL
Total tau; screening to day 21, SEM 79.1, placebo 53.7
  CSF Total tau, LS mean change: 186.4 pg/mL
[3]; 20, 40 or 60 mg given four times per day
  safety and tolerability, multiple dose studies: safe and well-tolerated
[3]; Single Ascending Dose study, daily dose of 160 mg or higher
  gastro-intestinal side effects: high rate of gastro-intestinal side effects
[3]; oral, up to four times per day
  plasma half-life: short
APP
  CSF APP before and after treatment: small reduction
